According to article PMC4013547 (ACS chemical biology, 2013):

What follows are compounds tested against Ldtfm (E. faecium L,D-transpeptidase, catalytic domain) (Enterococcus faecium, UniProt Q3Y185) (assay: NMR chemical shift perturbation). Conditions: covalent; active-site cysteine Cys442; Pocket 1.
Format: binding

Structure (SMILES)	NMR chemical shift perturbation
C[C@@H](O)[C@H]1C(=O)N2C(C(=O)O)=C(SCCN=CN)C[C@H]12 [imipenem]	NMR chemical shift perturbations observed with imipenem, doripenem and meropenem
C[C@@H](O)[C@H]1C(=O)N2C(C(=O)O)=C(S[C@@H]3CN[C@H](C(=O)N(C)C)C3)[C@H](C)[C@H]12 [meropenem]	NMR chemical shift perturbations observed with imipenem, doripenem and meropenem
C[C@@H](O)[C@H]1C(=O)N2C(C(=O)O)=C(S[C@@H]3CN[C@H](CNS(N)(=O)=O)C3)[C@H](C)[C@H]12 [doripenem]	NMR chemical shift perturbations observed with imipenem, doripenem and meropenem
